Test system: hedgehog response pathway
Assay: Hh pathway response in neuralized embryoid bodies from Ptch1-/-;Ptch2-/- mESCs
Format: cell-based, murine
Conditions: Ptch1-/-;Ptch2-/- mESCs differentiated into NEBs; agent added exogenously
Excerpt: In the absence of Ptch1, Ptch2 can mediate some measure of the Shh response. Given the contribution of both Ptch1 and Ptch2 to the interpretation of the Shh signal, it was reasoned that a Ptch1^−/−;Ptch2^−/− genetic background was essential to assess the aggregate contribution of Ptch1/2 to Shh signaling. […] The Ptch1^−/−;Ptch2^−/−;Shh^−/− assessed here have a LacZ under the control of the Ptch1 promoter (Goodrich et al., Science. 1997, 277:1109-1113). Since the upregulation of Ptch1 is a common response to the activation of the Hh response pathway, induction of LacZ in NEBs was assessed. A strong induction of LacZ was observed after three days into the differentiation protocol, consistent with the ventral identity observed using neural markers.

CNC1CCC(N(Cc2cccc(-c3ccncc3)c2)C(=O)c2sc3ccccc3c2Cl)CC1 (stereo not shown) [SAG] was tested, and the “induction of the hedgehog response pathway” value was “could not be further induced”.
